Like-named read-outs stand apart in the source and are kept apart here.
Experiments:
GLP-1R [1] = target: T1, GLP-1R (Homo sapiens, UniProt P43220); test: HitHunter cAMP assay (GLP-1R); assay type: cell-based; details: cAMP; for EC50: read-out: EC50 GLP-1R/nM; for Emax: read-out: (Emax) GLP-1R
Summary of the method: (§1)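 Suspension cells expressing each receptor (10,000 per well) in HBSS with 10 mM HEPES, 625 μM IBMX and 0.2% BSA were treated with a 22-point 2-fold agonist series in duplicate for 30 minutes at room temperature. cAMP was detected by antibody immunocompetition with luminescence read after overnight incubation.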

GIP-R = target: T2, GIP-R (Homo sapiens, UniProt P48546); test: HitHunter cAMP assay (GIP-R); assay type: cell-based; details: cAMP; for EC50: read-out: EC50 GIP-R/nM; for Emax: read-out: (Emax) GIP-R
T2 sequence (P48546 22-466): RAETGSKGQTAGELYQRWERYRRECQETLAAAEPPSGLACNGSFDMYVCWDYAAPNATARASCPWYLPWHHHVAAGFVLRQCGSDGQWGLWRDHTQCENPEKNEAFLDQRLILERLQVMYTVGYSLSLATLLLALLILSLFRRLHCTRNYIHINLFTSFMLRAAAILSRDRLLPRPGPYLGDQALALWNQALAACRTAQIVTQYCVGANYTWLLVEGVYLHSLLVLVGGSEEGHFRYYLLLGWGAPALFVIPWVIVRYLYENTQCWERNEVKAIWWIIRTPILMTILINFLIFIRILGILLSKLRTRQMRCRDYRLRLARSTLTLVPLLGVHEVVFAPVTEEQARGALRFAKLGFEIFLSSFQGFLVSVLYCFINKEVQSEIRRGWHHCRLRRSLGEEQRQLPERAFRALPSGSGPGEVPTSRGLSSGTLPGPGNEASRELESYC
Summary of the method: as §1

mice = test: Glucose tolerance test (GTT); assay type: in vivo, mouse; details: 24 h GTT, s.c., dose range 2-5 nmol/kg, percent of vehicle
Protocol: Freestyle Lite glucometer and strips; compounds to be tested; sterilized glucose solution 200 mg/ml.
Compounds were diluted in PBS from the 1 mM DMSO stocks right before injection. Body weight and baseline blood glucose level for each mouse were measured. Tails were snipped using sterile scissors; blood from tails was used to measure glucose. For 0.25 h GTT, mice were fasted for 5-6 h and injected with compound subcutaneously 15 mins before glucose injection. For 4 h GTT, mice were fasted O/N for 16 h and injected with compound subcutaneously 4 h before glucose injection. For 16 h GTT, mice were injected with compound subcutaneously 16 h before glucose injection; food was removed at the same time. For 24 h GTT, mice were injected with compound subcutaneously 24 h before glucose injection; food was removed 5-6 h before glucose injection. 20% glucose in water was prepared; the solution was sterilized by 0.2 μm-filtration. An intraperitoneal injection of glucose (2 g/kg) was given to the mouse. Continued to take blood samples from the tail. Blood glucose was measured at 10, 20, 30, 40, 60, 90, and 120 minutes after glucose injection. Between each of these time points, the mouse was returned to its cage and monitored (at least 6 replicate mice were used for each time-point). The average glucose measurements were plotted as a function of time and the area under the curve (AUC) was determined.

GLP-1R [2] = target: T1, GLP-1R; test: PathHunter β-arrestin assay; assay type: cell-based; details: PathHunter β-arrestin assay; read-out: β-arrestin activity EC50
Summary of the method: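 Cells seeded overnight, then medium replaced with medium containing 0.2% BSA; agonists added as 22-point 2-fold DMSO dilution series in duplicate and incubated 90 min at 37 °C, 5% CO2. After addition of detection solution, plates sat 3 h at room temperature in the dark; luminescence read.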

T1 sequence (P43220 24-463): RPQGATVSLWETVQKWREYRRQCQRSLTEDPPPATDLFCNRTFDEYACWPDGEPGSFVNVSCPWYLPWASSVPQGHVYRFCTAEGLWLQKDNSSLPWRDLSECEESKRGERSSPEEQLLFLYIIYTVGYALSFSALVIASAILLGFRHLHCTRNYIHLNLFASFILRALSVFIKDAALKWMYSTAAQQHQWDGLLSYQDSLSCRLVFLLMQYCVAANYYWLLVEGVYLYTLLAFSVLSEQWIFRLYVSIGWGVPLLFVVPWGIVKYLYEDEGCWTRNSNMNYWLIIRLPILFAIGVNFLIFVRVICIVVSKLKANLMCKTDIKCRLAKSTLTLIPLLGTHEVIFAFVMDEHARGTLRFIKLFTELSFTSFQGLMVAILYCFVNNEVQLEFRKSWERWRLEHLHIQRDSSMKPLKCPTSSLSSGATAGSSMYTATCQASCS

| Structure (SMILES) | (Emax) GLP-1R (GLP-1R [1]; Table 3) | EC50 (GLP-1R [1]; Table 3) | (Emax) GLP-1R (GLP-1R [1]; Table 3A) | EC50 (GLP-1R [1]; Table 3A) | (Emax) GIP-R (GIP-R; Table 3) | EC50 (GIP-R; Table 3) | (Emax) GIP-R (GIP-R; Table 3A) | EC50 (GIP-R; Table 3A) | AUC score (mice) | EC50 (GLP-1R [2]) | Emax (GLP-1R [1]; Table 3) | Emax (GLP-1R [1]; Table 3A) | Emax (GIP-R; Table 3) | Emax (GIP-R; Table 3A) |
| --- | --- | --- | --- | --- | --- | --- | --- | --- | --- | --- | --- | --- | --- | --- |
| CCCCCCCCCCCCCCCC(=O)N[C@@H](CCC(=O)NCCCC[C@H](NC(=O)[C@H](CO)NC(=O)[C@@H]1CCCN1C(=O)[C@@H]1CCCN1C(=O)[C@@H]1CCCN1C(=O)[C@H](C)NC(=O)CNC(=O)[C@H](CO)NC(=O)[C@H](CO)NC(=O)[C@@H]1CCCN1C(=O)CNC(=O)CNC(=O)[C@H](C)NC(=O)[C@H](CC(C)C)NC(=O)[C@H](CC(C)C)NC(=O)[C@H](Cc1c[nH]c2ccccc12)NC(=O)[C@H](CC(N)=O)NC(=O)[C@@H](NC(=O)[C@H](Cc1ccccc1)NC(=O)[C@H](CCC(=O)O)NC(=O)C(C)(C)NC(=O)[C@H](C)NC(=O)[C@H](C)NC(=O)[C@H](CCC(N)=O)NC(=O)[C@H](CCCCN)NC(=O)[C@H](CC(=O)O)NC(=O)[C@H](CC(C)C)NC(=O)[C@H](Cc1ccc(O)cc1)NC(=O)[C@@H](NC(=O)[C@H](CO)NC(=O)[C@H](Cc1ccc(O)cc1)NC(=O)[C@H](CC(=O)O)NC(=O)[C@H](CO)NC(=O)[C@@H](NC(=O)[C@H](Cc1ccccc1)NC(=O)[C@@H](NC(=O)CNC(=O)[C@H](CCC(=O)O)NC(=O)CSCC(=O)NCCN1CCC(C)C1=O)[C@@H](C)O)[C@@H](C)O)[C@@H](C)CC)C(C)C)C(N)=O)C(=O)O (single isomer, unassigned) [Compound 69] | 104% | 0.1 to 1 nM | 104% | 0.1 to 1 nM | 75% | 1 to 10 nM | 75% | 1 to 10 nM | 2 (AUC score 2 = 26-50%) | > 1000 nM | – | – | – | – |
| CCCCCCCCCCCCCCCC(=O)N[C@@H](CCC(=O)NCCCC[C@H](NC(=O)[C@H](CO)NC(=O)[C@@H]1CCCN1C(=O)[C@@H]1CCCN1C(=O)[C@@H]1CCCN1C(=O)[C@H](C)NC(=O)CNC(=O)[C@H](CO)NC(=O)[C@H](CO)NC(=O)[C@@H]1CCCN1C(=O)CNC(=O)CNC(=O)[C@H](C)NC(=O)[C@H](CC(C)C)NC(=O)[C@H](CC(C)C)NC(=O)[C@H](Cc1c[nH]c2ccccc12)NC(=O)[C@H](CC(N)=O)NC(=O)[C@@H](NC(=O)[C@H](Cc1ccccc1)NC(=O)[C@H](CCC(=O)O)NC(=O)C(C)(C)NC(=O)[C@H](C)NC(=O)[C@H](C)NC(=O)[C@H](CCC(N)=O)NC(=O)[C@H](CCCCN)NC(=O)[C@H](CC(=O)O)NC(=O)[C@H](CC(C)C)NC(=O)[C@H](Cc1ccc(O)cc1)NC(=O)[C@@H](NC(=O)[C@H](CO)NC(=O)[C@H](Cc1ccc(O)cc1)NC(=O)[C@H](CC(=O)O)NC(=O)[C@H](CO)NC(=O)[C@@H](NC(=O)[C@H](Cc1ccccc1)NC(=O)[C@@H](NC(=O)CNC(=O)[C@H](CCC(=O)O)NC(=O)CNC(=O)CCN1CCCCC1=O)[C@@H](C)O)[C@@H](C)O)[C@@H](C)CC)C(C)C)C(N)=O)C(=O)O [Compound 1] | – | 0.1 to 1 nM | – | 0.1 to 1 nM | – | 1 to 10 nM | – | 10 to 100 nM | 3 (AUC score 3 = 51-75%) | > 1000 nM | 97% | 97% | 23% | 23% |
| CCCCCCCCCCCCCCCC(=O)N[C@@H](CCC(=O)NCCCC[C@H](NC(=O)[C@H](CO)NC(=O)[C@@H]1CCCN1C(=O)[C@@H]1CCCN1C(=O)[C@@H]1CCCN1C(=O)[C@H](C)NC(=O)CNC(=O)[C@H](CO)NC(=O)[C@H](CO)NC(=O)[C@@H]1CCCN1C(=O)CNC(=O)CNC(=O)[C@H](C)NC(=O)[C@H](CC(C)C)NC(=O)[C@H](CC(C)C)NC(=O)[C@H](Cc1c[nH]c2ccccc12)NC(=O)[C@H](CC(N)=O)NC(=O)[C@@H](NC(=O)[C@H](Cc1ccccc1)NC(=O)[C@H](CCC(=O)O)NC(=O)C(C)(C)NC(=O)[C@H](C)NC(=O)[C@H](C)NC(=O)[C@H](CCC(N)=O)NC(=O)[C@H](CCCCN)NC(=O)[C@H](CC(=O)O)NC(=O)[C@H](CC(C)C)NC(=O)[C@H](Cc1ccc(O)cc1)NC(=O)[C@@H](NC(=O)[C@H](CO)NC(=O)[C@H](Cc1ccc(O)cc1)NC(=O)[C@H](CC(=O)O)NC(=O)[C@H](CO)NC(=O)[C@@H](NC(=O)[C@H](Cc1ccccc1)NC(=O)[C@@H](NC(=O)CNC(=O)[C@H](CCC(=O)O)NC(=O)CNC(=O)CN1CCCCC1=O)[C@@H](C)O)[C@@H](C)O)[C@@H](C)CC)C(C)C)C(N)=O)C(=O)O [Compound 2] | – | < 0.1 nM | – | < 0.1 nM | – | 1 to 10 nM | – | 1 to 10 nM | 2 (AUC score 2 = 26-50%) | > 1000 nM | 99% | 99% | 46% | 46% |
| CCCCCCCCCCCCCCCC(=O)N[C@@H](CCC(=O)NCCCC[C@H](NC(=O)[C@H](CO)NC(=O)[C@@H]1CCCN1C(=O)[C@@H]1CCCN1C(=O)[C@@H]1CCCN1C(=O)[C@H](C)NC(=O)CNC(=O)[C@H](CO)NC(=O)[C@H](CO)NC(=O)[C@@H]1CCCN1C(=O)CNC(=O)CNC(=O)[C@H](C)NC(=O)[C@H](CC(C)C)NC(=O)[C@H](CC(C)C)NC(=O)[C@H](Cc1c[nH]c2ccccc12)NC(=O)[C@H](CC(N)=O)NC(=O)[C@@H](NC(=O)[C@H](Cc1ccccc1)NC(=O)[C@H](CCC(=O)O)NC(=O)C(C)(C)NC(=O)[C@H](C)NC(=O)[C@H](C)NC(=O)[C@H](CCC(N)=O)NC(=O)[C@H](CCCCN)NC(=O)[C@H](CC(=O)O)NC(=O)[C@H](CC(C)C)NC(=O)[C@H](Cc1ccc(O)cc1)NC(=O)[C@@H](NC(=O)[C@H](CO)NC(=O)[C@H](Cc1ccc(O)cc1)NC(=O)[C@H](CC(=O)O)NC(=O)[C@H](CO)NC(=O)[C@@H](NC(=O)[C@H](Cc1ccccc1)NC(=O)[C@@H](NC(=O)CNC(=O)[C@H](CCC(=O)O)NC(=O)CCNC(=O)CN1CCCCC1=O)[C@@H](C)O)[C@@H](C)O)[C@@H](C)CC)C(C)C)C(N)=O)C(=O)O [Compound 5] | – | < 0.1 nM | – | < 0.1 nM | – | 1 to 10 nM | – | 1 to 10 nM | 2 (AUC score 2 = 26-50%) | 10 to 1000 nM | 95% | 95% | 74% | 74% |
| CCCCCCCCCCCCCCCC(=O)N[C@@H](CCC(=O)NCCCC[C@H](NC(=O)[C@H](CO)NC(=O)[C@@H]1CCCN1C(=O)[C@@H]1CCCN1C(=O)[C@@H]1CCCN1C(=O)[C@H](C)NC(=O)CNC(=O)[C@H](CO)NC(=O)[C@H](CO)NC(=O)[C@@H]1CCCN1C(=O)CNC(=O)CNC(=O)[C@H](C)NC(=O)[C@H](CC(C)C)NC(=O)[C@H](CC(C)C)NC(=O)[C@H](Cc1c[nH]c2ccccc12)NC(=O)[C@H](CC(N)=O)NC(=O)[C@@H](NC(=O)[C@H](Cc1ccccc1)NC(=O)[C@H](CCC(=O)O)NC(=O)C(C)(C)NC(=O)[C@H](C)NC(=O)[C@H](C)NC(=O)[C@H](CCC(N)=O)NC(=O)[C@H](CCCCN)NC(=O)[C@H](CC(=O)O)NC(=O)[C@H](CC(C)C)NC(=O)[C@H](Cc1ccc(O)cc1)NC(=O)[C@@H](NC(=O)[C@H](CO)NC(=O)[C@H](Cc1ccc(O)cc1)NC(=O)[C@H](CC(=O)O)NC(=O)[C@H](CO)NC(=O)[C@@H](NC(=O)[C@H](Cc1ccccc1)NC(=O)[C@@H](NC(=O)CNC(=O)[C@H](CCC(=O)O)NC(=O)CCCNC(=O)CN1CCCCC1=O)[C@@H](C)O)[C@@H](C)O)[C@@H](C)CC)C(C)C)C(N)=O)C(=O)O [Compound 16] | – | < 0.1 nM | – | < 0.1 nM | – | 1 to 10 nM | – | 10 to 100 nM | 2 (AUC score 2 = 26-50%) | < 10 nM | 97% | 97% | 22% | 22% |

— patent US20260176320A1, “MODULATORS OF G-PROTEIN COUPLED RECEPTORS” (priority 2018, published 2026)
